# Biological target: T1, human PAH with the R408W mutation (A375 R408W cells) (Homo sapiens, UniProt P00439, R408W)
# T1 construct: expressed in transfected cells
# T1 sequence (P00439 1-452 R408W): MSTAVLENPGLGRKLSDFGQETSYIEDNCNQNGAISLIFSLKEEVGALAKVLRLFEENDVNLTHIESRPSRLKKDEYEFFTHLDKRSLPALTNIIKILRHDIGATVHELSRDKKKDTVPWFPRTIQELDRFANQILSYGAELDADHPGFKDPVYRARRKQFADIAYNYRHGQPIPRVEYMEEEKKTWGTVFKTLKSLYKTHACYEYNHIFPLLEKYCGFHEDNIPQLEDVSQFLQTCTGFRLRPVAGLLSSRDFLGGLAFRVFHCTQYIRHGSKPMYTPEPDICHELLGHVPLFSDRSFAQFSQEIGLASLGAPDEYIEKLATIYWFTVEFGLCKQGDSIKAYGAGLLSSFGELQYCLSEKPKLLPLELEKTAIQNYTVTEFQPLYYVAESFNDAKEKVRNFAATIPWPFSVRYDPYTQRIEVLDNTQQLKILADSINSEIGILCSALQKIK
# Experiment: Cell Based Phenylalanine Flux Assay
# Conditions: A375 R408W cells; 24 hrs with compound, then 20 μM sepiapterin and 800 μM 13C9,15N-Phenylalanine for 4 hours; 13C-Tyrosine by LC-MS; average where tested multiple times
# Summary of the method: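 AC50 is derived from LC-MS of 13C-tyrosine in the media after a 4 h pulse of 800 μM 13C9,15N-phenylalanine plus 20 μM sepiapterin. The A375 R408W PAH cells had received duplicate 10-point, 2-fold compound dilutions (0.5% DMSO) for 24 h beforehand.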
row,Structure (SMILES),AC50 [nM]
1,"Cn1nc(C2CC2)nc1C(=O)N1CCc2[nH]cnc2[C@@H]1c1nc2cccc(F)c2o1 [Example 498, (R)-(3-cyclopropyl-1-methyl-1H-1,2,4-triazol-5-yl)(4-(7-fluorobenzo[d]oxazol-2-yl)-6,7-dihydro-1H-imidazo[4,5-c]pyridin-5(4H)-yl)methanone]",1000 to 5000
2,"O=C(c1nnc(-c2ccccn2)o1)N1CCc2[nH]cnc2[C@H]1c1nc2cccc(F)c2o1 [Example 335, (S)-(4-(7-fluorobenzo[d]oxazol-2-yl)-6,7-dihydro-1H-imidazo[4,5-c]pyridin-5(4H)-yl)(5-(pyridin-2-yl)-1,3,4-oxadiazol-2-yl)methanone]",≤ 500
3,"O=C(c1oc(C2(O)CCC2)nc1C(F)F)N1CCc2[nH]cnc2[C@H]1c1nc2cc(F)ccc2o1 [Example 689, (S)-(4-(difluoromethyl)-2-(1-hydroxycyclobutyl)oxazol-5-yl)(4-(5-fluorobenzo[d]oxazol-2-yl)-6,7-dihydro-1H-imidazo[4,5-c]pyridin-5(4H)-yl)methanone]",≤ 500
4,"O=C(c1ocnc1C(F)F)N1CCc2[nH]cnc2[C@@H]1c1nc2cccc(Br)c2o1 [Example 462, (R)-(4-(7-bromobenzo[d]oxazol-2-yl)-6,7-dihydro-1H-imidazo[4,5-c]pyridin-5(4H)-yl)(4-(difluoromethyl)oxazol-5-yl)methanone]",≤ 500
5,"O=C(c1oc(-c2ccc(C(F)(F)F)cn2)nc1C(F)F)N1CCc2[nH]cnc2[C@@H]1c1nc2cc(F)ccc2o1 [Example 443, (R)-(4-(difluoromethyl)-2-(5-(trifluoromethyl)pyridin-2-yl)oxazol-5-yl)(4-(5-fluorobenzo[d]oxazol-2-yl)-6,7-dihydro-1H-imidazo[4,5-c]pyridin-5(4H)-yl)methanone]",500 to 1000
6,"CN(C)CCc1cn2ncc(C(=O)N3CCc4[nH]cnc4[C@H]3c3nc4cc(F)ccc4o3)c2cc1Cl [Example 79, (S)-(5-chloro-6-(2-(dimethylamino)ethyl)pyrazolo[1,5-a]pyridin-3-yl)(4-(5-fluorobenzo[d]oxazol-2-yl)-6,7-dihydro-1H-imidazo[4,5-c]pyridin-5(4H)-yl)methanone]",500 to 1000
7,"Cn1ccc(-c2nnc(C(=O)N3CCc4[nH]cnc4[C@@H]3c3nc4c(F)cccc4o3)o2)n1 [Example 380, (R)-(4-(4-fluorobenzo[d]oxazol-2-yl)-1,4,6,7-tetrahydro-5H-imidazo[4,5-c]pyridin-5-yl)(5-(1-methyl-1H-pyrazol-3-yl)-1,3,4-oxadiazol-2-yl)methanone]",500 to 1000
8,"Nc1cn2ncc(C(=O)N3CCc4[nH]cnc4[C@@H]3c3nc4cc(F)ccc4o3)c2cc1Cl [Example 178, (R)-(6-amino-5-chloropyrazolo[1,5-a]pyridin-3-yl)(4-(5-fluorobenzo[d]oxazol-2-yl)-6,7-dihydro-1H-imidazo[4,5-c]pyridin-5(4H)-yl)methanone]",≥ 5000
9,"Cc1cc(F)cc2nc([C@@H]3c4nc[nH]c4CCN3C(=O)c3oc(C(C)(C)O)nc3C(F)F)oc12 [Example 655, (S)-(4-(difluoromethyl)-2-(2-hydroxypropan-2-yl)oxazol-5-yl)(4-(5-fluoro-7-methylbenzo[d]oxazol-2-yl)-6,7-dihydro-1H-imidazo[4,5-c]pyridin-5(4H)-yl)methanone]",≤ 500
10,"O=C(c1ccnn1C(F)F)N1CCc2[nH]cnc2[C@@H]1c1nc2ccc(F)cc2o1 [Example 190, (R)-(1-(difluoromethyl)-1H-pyrazol-5-yl)(4-(6-fluorobenzo[d]oxazol-2-yl)-6,7-dihydro-1H-imidazo[4,5-c]pyridin-5(4H)-yl)methanone]",1000 to 5000
11,"Cc1cccc2oc([C@H]3c4nc[nH]c4CCN3C(=O)c3ccnn3C(F)F)nc12 [Example 450, (R)-(1-(difluoromethyl)-1H-pyrazol-5-yl)(4-(4-methylbenzo[d]oxazol-2-yl)-6,7-dihydro-1H-imidazo[4,5-c]pyridin-5(4H)-yl)methanone]",1000 to 5000
12,"Cn1cnc(-c2nc(C(F)F)c(C(=O)N3CCc4[nH]cnc4[C@H]3c3nc4cccc(F)c4o3)o2)c1 [Example 892, (S)-(4-(difluoromethyl)-2-(1-methyl-1H-imidazol-4-yl)oxazol-5-yl)(4-(7-fluorobenzo[d]oxazol-2-yl)-1,4,6,7-tetrahydro-5H-imidazo[4,5-c]pyridin-5-yl)methanone]",≤ 500
13,"Cn1cnc(-c2nc(C(F)F)c(C(=O)N3CCc4[nH]cnc4[C@@H]3c3nc4ccccc4o3)o2)c1 [Example 785, (R)-(4-(benzo[d]oxazol-2-yl)-6,7-dihydro-1H-imidazo[4,5-c]pyridin-5(4H)-yl)(4-(difluoromethyl)-2-(1-methyl-1H-imidazol-4-yl)oxazol-5-yl)methanone]",≥ 5000
14,"O=C(CCc1ncco1)N1CCc2[nH]cnc2[C@H]1c1nc2cccc(F)c2o1 [Example 387, (S)-1-(4-(7-fluorobenzo[d]oxazol-2-yl)-6,7-dihydro-1H-imidazo[4,5-c]pyridin-5(4H)-yl)-3-(oxazol-2-yl)propan-1-one]",500 to 1000
15,"Cc1nc(-c2ccccn2)oc1C(=O)N1CCc2[nH]cnc2[C@H]1c1nc2cc(F)ccc2o1 [Example 31, (S)-(4-(5-fluorobenzo[d]oxazol-2-yl)-6,7-dihydro-1H-imidazo[4,5-c]pyridin-5(4H)-yl)(4-methyl-2-(pyridin-2-yl)oxazol-5-yl)methanone]",500 to 1000
16,"O=C(c1ccnn1C(F)(F)F)N1CCc2[nH]cnc2[C@@H]1c1nc2cc(F)ccc2o1 [Example 262, (R)-(4-(5-fluorobenzo[d]oxazol-2-yl)-6,7-dihydro-1H-imidazo[4,5-c]pyridin-5(4H)-yl)(1-(trifluoromethyl)-1H-pyrazol-5-yl)methanone]",500 to 1000
17,"COCc1ccc2c(C(=O)N3CCc4[nH]cnc4[C@H]3c3nc4cc(C)ccc4o3)cnn2c1 [Example 877, (S)-(6-(methoxymethyl)pyrazolo[1,5-a]pyridin-3-yl)(4-(5-methylbenzo[d]oxazol-2-yl)-6,7-dihydro-1H-imidazo[4,5-c]pyridin-5(4H)-yl)methanone]",1000 to 5000
18,"O=C(c1cnn2cc(N3CCOCC3)ccc12)N1CCc2[nH]cnc2[C@@H]1c1nc2cccc(F)c2o1 [Example 366, (R)-(4-(7-fluorobenzo[d]oxazol-2-yl)-6,7-dihydro-1H-imidazo[4,5-c]pyridin-5(4H)-yl)(6-morpholinopyrazolo[1,5-a]pyridin-3-yl)methanone]",1000 to 5000
19,"Cc1cccc2nc([C@@H]3c4nc[nH]c4CCN3C(=O)c3ccnn3C(F)(F)F)oc12 [Example 710, (S)-(4-(7-methylbenzo[d]oxazol-2-yl)-6,7-dihydro-1H-imidazo[4,5-c]pyridin-5(4H)-yl)(1-(trifluoromethyl)-1H-pyrazol-5-yl)methanone]",≤ 500
20,"CC(C)(C)c1nc(C(F)F)c(C(=O)N2CCc3[nH]cnc3[C@@H]2c2nc3cc(F)ccc3o2)o1 [Example 754, (R)-(2-(tert-butyl)-4-(difluoromethyl)oxazol-5-yl)(4-(5-fluorobenzo[d]oxazol-2-yl)-6,7-dihydro-1H-imidazo[4,5-c]pyridin-5(4H)-yl)methanone]",1000 to 5000
21,"O=C(c1cnn2cc(-c3ccccn3)ccc12)N1CCc2[nH]cnc2[C@H]1c1nc2cc(F)ccc2o1 [Example 81, (S)-(4-(5-fluorobenzo[d]oxazol-2-yl)-6,7-dihydro-1H-imidazo[4,5-c]pyridin-5(4H)-yl)(6-(pyridin-2-yl)pyrazolo[1,5-a]pyridin-3-yl)methanone]",500 to 1000
22,"Cc1ccc(C)c2oc([C@@H]3c4nc[nH]c4CCN3C(=O)c3oc(C(C)(C)O)nc3C(F)F)nc12 [Example 659, (S)-(4-(difluoromethyl)-2-(2-hydroxypropan-2-yl)oxazol-5-yl)(4-(4,7-dimethylbenzo[d]oxazol-2-yl)-6,7-dihydro-1H-imidazo[4,5-c]pyridin-5(4H)-yl)methanone]",≤ 500
23,"Cc1cccc2nc([C@@H]3c4nc[nH]c4CCN3C(=O)c3oc(C(C)(C)O)nc3C(F)F)oc12 [Example 392, (S)-(4-(difluoromethyl)-2-(2-hydroxypropan-2-yl)oxazol-5-yl)(4-(7-methylbenzo[d]oxazol-2-yl)-6,7-dihydro-1H-imidazo[4,5-c]pyridin-5(4H)-yl)methanone]",≤ 500

# Same assay, conditions: A375 cells expressing R408W PAH; 24 hrs with compound, then 20 μM sepiapterin and 800 μM 13C9,15N-Phenylalanine for 4 hours; 13C-Tyrosine by LC-MS; average where tested multiple times
row,Structure (SMILES),AC50 [nM]
1,O=C(c1nnc(N2CCC(F)CC2)o1)N1CCc2[nH]cnc2C1c1nc2cc(F)ccc2o1 (centres unmarked),1000 to 5000
2,Cc1cc(-c2nnc(C(=O)N3CCc4[nH]cnc4C3c3nc4cc(F)ccc4o3)o2)nn1C (centres unmarked),1000 to 5000
3,Cc1ccc2nc(C3c4nc[nH]c4CCN3C(=O)c3cncs3)oc2c1 (centres unmarked),1000 to 5000
4,"CN1C2CCC1CN(c1ccc3c(C(=O)N4CCc5[nH]cnc5C4c4nc5cc(F)ccc5o4)cnn3c1)C2 (single isomer, unassigned)",1000 to 5000
5,O=C(c1nnc(-c2ccn[nH]2)o1)N1CCc2[nH]cnc2C1c1nc2ccc(F)cc2o1 (centres unmarked),1000 to 5000
6,CN(C)CCCc1ccc2c(C(=O)N3CCc4[nH]cnc4C3c3nc4cc(F)ccc4o3)cnn2c1 (centres unmarked),≥ 5000
7,O=C(c1cnco1)N1CCc2[nH]cnc2C1c1nc2ccc(F)c(F)c2o1 (centres unmarked),1000 to 5000
8,COCCOc1ccc2c(C(=O)N3CCc4[nH]cnc4C3c3nc4cc(F)ccc4o3)cnn2c1 (centres unmarked),≥ 5000
9,Cc1nc(C(C)O)oc1C(=O)N1CCc2[nH]cnc2C1c1nc2ccc(F)cc2o1 (centres unmarked),≥ 5000

# — US20250171437A1 (Agios Pharmaceuticals,Inc., priority 2022, published 2025)
